Data taken from patent US11168102B1, “Bicyclic heteroaryl compounds and uses thereof” (Revolution Medicines, Inc., priority 2019, dated 2021).

System: cellular pERK in PC-9 cells (EGFR Ex19Del)
Experiment: Potency assay: pERK (AlphaLISA SureFire Ultra p-ERK1/2) in PC-9 cells
Format: cell-based
Conditions: Homo sapiens, PC-9, 1 h, PC-9 cells (EGFR Ex19Del), 1 hour incubation, AlphaLISA SureFire Ultra p-ERK1/2; read-out: SOS1 pERK IC50

Row | SMILES | IC50
1 | CC(=O)N1CC[C@@](C#N)(c2cc3c(N[C@H](C)c4cccc(C(F)F)c4F)ncnc3n(C)c2=O)C1 [Example 36-11] | 268 nM
2 | C[C@@H](Nc1ncnc2c1cc(C1=CC[S+]([O-])CC1)c(=O)n2C)c1cccc(C(F)F)c1F (stereo partly drawn) [Example 22, 4-(((R)-1-(3-(difluoromethyl)-2-fluorophenyl)ethyl)amino)-8-methyl-6-(1-oxido-3,6-dihydro-2H-thiopyran-4-yl)pyrido[2,3-d]pyrimidin-7(8H)-one] | 122 nM
3 | C[C@@H](Nc1ncnc2c1cc(C1CCS(=O)(=O)CC1)c(=O)n2C)c1ccc(-c2ccccc2CN)s1 [Example 33-18] | 53.2 nM
4 | C[C@@H](Nc1ncnc2c1cc(Sc1ccccc1)c(=O)n2C)c1cccc(C(F)F)c1F [Example 30, 4-{[(1R)-1-[3-(difluoromethyl)-2-fluorophenyl]ethyl]amino}-8-methyl-6-(phenylsulfanyl)-7H,8H-pyrido[2,3-d]pyrimidin-7-one] | 2760 nM
5 | COC1(c2cc3c(C[C@H](C)c4cccc(C(F)F)c4F)ncnc3n(C)c2=O)CC2(C1)CS(=O)(=NC1CC1)C2 (some centres unmarked) [Example 68-2] | 136 nM
6 | C[C@@H](Nc1ncnc2c1cc(C1CCS(=O)(=O)CC1)c(=O)n2C)c1cccc(-c2ccccc2CN)c1 [Example 33-17] | 285 nM
7 | C[C@@H](Nc1ncnc2c1cc(C1(C#N)CCC3(CC1)CS(=O)(=O)C3)c(=O)n2C)c1cccc(C(F)F)c1F [Example 36-8] | 38.8 nM
8 | C[C@@H](Nc1ncnc2c1cc(C1CCS(=O)(=NC(N)=O)CC1)c(=O)n2C)c1cccc(C(F)F)c1F (some centres unmarked) [Example 33-24] | 293 nM
9 | C[C@@H](Nc1ncnc2c1cc(C1(O)CCS(=O)(=O)CC1)c(=O)n2C)c1cccc(C(F)F)c1F [Example 28, 4-(4-{[(1R)-1-[3-(difluoromethyl)-2-fluorophenyl]-ethyl]amino}-8-methyl-7-oxo-7H,8H-pyrido[2,3-d]pyrimidin-6-yl)-4-hydroxy-1λ^6-thiane-1,1-dione] | 93.7 nM
10 | CC(=O)N1CC[C@@H](c2cc3c(N[C@H](C)c4cccc(C(F)F)c4F)ncnc3n(C)c2=O)C1 [Example 33-14] | 271 nM
11 | C[C@@H](Nc1ncnc2c1cc(C1CCN(S(C)(=O)=O)C1)c(=O)n2C)c1cccc(C(F)F)c1F (some centres unmarked) [Example 33-10] | 335 nM
12 | Cc1c(C(F)F)cccc1[C@@H](C)Nc1ncnc2c1cc(C1CCS(=O)(=O)CC1)c(=O)n2C [Example 33-5] | 41.2 nM
13 | COC1(c2cc3c(N[C@H](C)c4cccc(C(F)F)c4F)ncnc3n(C)c2=O)CC2(CCN(C(C)=O)C2)C1 (some centres unmarked) [Example 32-21] | 393 nM
14 | C[C@@H](Nc1ncnc2c1cc(C1=CCS(=O)(=NC#N)CC1)c(=O)n2C)c1cccc(C(F)F)c1F (single isomer, unassigned) [Example 45] | 29.1 nM
15 | C[C@@H](Nc1ncnc2c1cc(C1=CCS(=N)(=O)CC1)c(=O)n2C)c1cccc(C(F)F)c1F (stereo partly drawn) [Example 23, 4-(((R)-1-(3-(difluoromethyl)-2-fluorophenyl)ethyl)amino)-6-(1-imino-1-oxido-1,2,3,6-tetrahydro-1λ^6-thiopyran-4-yl)-8-methylpyrido[2,3-d]pyrimidin-7(8H)-one] | 48.5 nM
16 | COC1(c2cc3c(N[C@H](C)c4cccc(C(F)F)c4F)ncnc3n(C)c2=O)CCN(C=O)CC1 [Example 32-60] | 21.1 nM
17 | COC1(c2cc3c(N[C@H](C)c4cccc(C(F)F)c4F)ncnc3n(C)c2=O)C[C@H]2C[C@@H]1CN2C(C)=O (some centres unmarked) [Example 32-14] | 1310 nM
18 | CC(=O)N1CCC(C#N)(c2cc3c(N[C@H](C)c4cccc(C(F)F)c4F)ncnc3n(C)c2=O)CC1 [Example 36, 1-acetyl-4-(4-{[(1R)-1-[3-(difluoromethyl)-2-fluorophenyl]ethyl]amino}-8-methyl-7-oxo-7H,8H-pyrido[2,3-d]pyrimidin-6-yl)piperidine-4-carbonitrile] | 28.1 nM
19 | C[C@@H](Nc1ncnc2c1cc(C(=O)N1CC3COCC31)c(=O)n2C)c1cccc(C(F)F)c1F (some centres unmarked) [Example 26-5] | 396 nM
20 | C[C@@H](Nc1ncnc2c1cc(C1CCNCC1)c(=O)n2C)c1cccc(C(F)F)c1F [Example 1-28] | 125 nM
21 | C[C@@H](Nc1ncnc2c1cc(C1(F)CCS(=O)(=O)CC1)c(=O)n2C)c1cccc(C(F)F)c1F [Example 29, 4-(4-{[(1R)-1-[3-(difluoromethyl)-2-fluorophenyl]ethyl]amino}-8-methyl-7-oxo-7H,8H-pyrido[2,3-d]-pyrimidin-6-yl)-4-fluoro-1λ^6-thiane-1,1-dione] | 34.6 nM
22 | COC1(c2cc3c(N[C@H](C)c4cccc(C(F)F)c4F)ncnc3n(C)c2=O)CCC(S(C)(=O)=O)CC1 (some centres unmarked) [Example 32-59] | 20.3 nM
23 | COC1(c2cc3c(N[C@H](C)c4ccnc(C(F)F)c4F)ncnc3n(C)c2=O)CCN(C(C)=O)CC1 [Example 71, 6-(1-acetyl-4-methoxy-4-piperidyl)-4-[[(1R)-1-[2-(difluoromethyl)-3-fluoro-4-pyridyl]ethyl]amino]-8-methyl-pyrido-[2,3-d]pyrimidin-7-one] | 528 nM
24 | COC1(c2cc3c(N[C@H](C)c4cccc(C(F)F)c4F)ncnc3n(C)c2=O)CCC2CN(C(C)=O)CC21 (some centres unmarked) [Example 32-35] | 244 nM
25 | COC1(c2cc3c(N[C@H](C)c4cccc(C(F)F)c4F)ncnc3n(C)c2=O)C[C@@H](C)N(C(C)=O)C1 (some centres unmarked) [Example 32-37] | 11.8 nM
26 | CC(=O)N1CCC(c2cc3c(N[C@H](C)c4cccc(C(F)F)c4CF)ncnc3n(C)c2=O)CC1 [Example 39, 6-(1-acetylpiperidin-4-yl)-4-{[(1R)-1-[3-(difluoromethyl)-2-(fluoromethyl)phenyl]ethyl]amino}-8-methyl-7H,8H-pyrido[2,3-d]pyrimidin-7-one] | 1560 nM
27 | C[C@@H](Nc1ncnc2c1cc(C1(C)CCS(=O)(=O)CC1)c(=O)n2C)c1cccc(C(F)F)c1F [Example 37, 4-(4-{[(1R)-1-[3-(difluoromethyl)-2-fluorophenyl]ethyl]amino}-8-methyl-7-oxo-7H,8H-pyrido[2,3-d]pyrimidin-6-yl)-4-methyl-1λ^6-thiane-1,1-dione] | 49.9 nM
28 | C[C@@H](Nc1ncnc2c1cc(C1CCC3(CC1)CS(=O)(=O)C3)c(=O)n2C)c1cccc(C(F)F)c1F [Example 33-2] | 71.6 nM

Same assay, conditions: PC-9 cells (EGFR Ex19Del), 1 hour incubation, AlphaLISA SureFire Ultra p-ERK1/2; read-out: SOS1 pERK IC50

Row | SMILES | IC50
29 | C[C@@H](Nc1ncnc2c1cc(C1(C#N)CCS(=O)(=O)C1)c(=O)n2C)c1cccc(C(F)F)c1F (some centres unmarked) [Example 36-14] | 207 nM
30 | COC1(c2cc3c(N[C@H](C)c4cccc(C(F)F)c4F)ncnc3n(C)c2=O)CCS(=O)(=O)C(C)C1 (some centres unmarked) [Example 32-65] | 50.3 nM
31 | C[C@@H](Nc1ncnc2c1cc(C1CCS(=N)(=O)CC1)c(=O)n2C)c1cccc(C(F)F)c1F (stereo partly drawn) [Example 35, (R)-4-((1-(3-(difluoromethyl)-2-fluorophenyl)ethyl)amino)-6-(1-imino-1-oxidohexahydro-1λ^6-thiopyran-4-yl)-8-methylpyrido[2,3-d]pyrimidin-7(8H)-one] | 127 nM
32 | COC1(c2cc3c(C[C@H](C)c4cccc(C(F)F)c4F)ncnc3n(C)c2=O)CC2(C1)CS(=O)(=NC1CC1)C2 (some centres unmarked) [Example 68-3] | 100 nM
33 | CC1CC(c2cc3c(N[C@H](C)c4cccc(C(F)F)c4F)ncnc3n(C)c2=O)CCS1(=O)=O (some centres unmarked) [Example 33-13] | 21 nM
34 | CC(=O)N1CCC2(c3cc4c(N[C@H](C)c5cccc(C(F)F)c5F)ncnc4n(C)c3=O)CC2C1 (single isomer, unassigned) [Example 54-1] | 53.7 nM
35 | C[C@@H](Nc1ncnc2c1cc(C1CCP(C)(=O)CC1)c(=O)n2C)c1cccc(C(F)F)c1F (some centres unmarked) [Example 33-23] | 85.4 nM
